ChEMBL document CHEMBL5113392, “Novel hybrid pyrrolidinedione-thiazolidinones as potential anticancer agents: Synthesis and biological evaluation” (Eur J Med Chem, 2022)

Assays:
MDA-MB-231 = test: Anticancer activity against human MDA-MB-231 cells assessed as cell growth inhibition incubated for 72 hrs by MTT assay; type: functional
[1] = Anticancer activity against human HCT116-p53-null cells assessed as cell growth inhibition incubated for 72 hrs by MTT assay; type: functional
HCT-116 = test: Anticancer activity against human HCT-116 cells assessed as cell growth inhibition incubated for 72 hrs by MTT assay; type: functional
Jurkat = test: Anticancer activity against human Jurkat cells assessed as cell growth inhibition incubated for 72 hrs by MTT assay; type: functional
[2] = Selectivity index, ratio of GI50 for human HaCaT cells to GI50 for human U-251 cells; type: toxicity; settings: HaCaT cells versus U-251 cells, read-out: RatioGI50
[3] = Selectivity index, ratio of GI50 for human HaCaT cells to GI50 for human HCT-116 cells; type: toxicity; settings: HaCaT cells versus HCT-116 cells, read-out: RatioGI50
MCF7 [4] = test: Anticancer activity against human MCF7 cells assessed as cell growth inhibition incubated for 72 hrs by MTT assay; type: functional
[5] = Selectivity index, ratio of GI50 for human HaCaT cells to GI50 for human MDA-MB-231 cells; type: toxicity; settings: HaCaT cells versus MDA-MB-231 cells, read-out: RatioGI50
A549 = test: Anticancer activity against human A549 cells assessed as cell growth inhibition incubated for 72 hrs by MTT assay; type: functional
[6] = Selectivity index, ratio of GI50 for human HaCaT cells to GI50 for human SK-OV-3 cells; type: toxicity; settings: HaCaT cells versus SK-OV-3 cells, read-out: RatioGI50
U-251 = test: Anticancer activity against human U-251 cells assessed as cell growth inhibition incubated for 72 hrs by MTT assay; type: functional
[7] = Selectivity index, ratio of GI50 for human HaCaT cells to GI50 for human Jurkat cells; type: toxicity; settings: HaCaT cells versus Jurkat cells, read-out: RatioGI50
SK-OV-3 = test: Anticancer activity against human SK-OV-3 cells assessed as cell growth inhibition incubated for 72 hrs by MTT assay; type: functional
[8] = Selectivity index, ratio of GI50 for human HaCaT cells to GI50 for human HCT116-p53-null cells; type: toxicity; settings: HaCaT cells versus HCT116-p53-null cells, read-out: RatioGI50
[9] = Selectivity index, ratio of GI50 for human HaCaT cells to GI50 for human A549 cells; type: toxicity; settings: HaCaT cells versus A549 cells, read-out: RatioGI50
HeLa = test: Anticancer activity against human HeLa cells assessed as cell growth inhibition incubated for 72 hrs by MTT assay; type: functional
[10] = Selectivity index, ratio of GI50 for human HaCaT cells to GI50 for human MCF7 cells; type: toxicity; settings: HaCaT cells versus MCF7 cells, read-out: RatioGI50
[11] = Selectivity index, ratio of GI50 for human HaCaT cells to GI50 for human HeLa cells; type: toxicity; settings: HaCaT cells versus HeLa cells, read-out: RatioGI50
[12] = Cytotoxicity against human HaCaT cells assessed as cell growth inhibition incubated for 72 hrs by MTT assay; type: toxicity, cell-based
CAKI-1 = test: Anticancer activity against human CAKI-1 cells assessed as inhibition of cell growth at 10 uM incubated for 48 hrs by SRB assay; type: functional; settings: CAKI-1, 48 h, values are per cent of control
MDA-MB-435 = test: Anticancer activity against human MDA-MB-435 cells assessed as inhibition of cell growth at 10 uM incubated for 48 hrs by SRB assay; type: functional
[13] = Cytotoxicity against mitogen activated human peripheral blood lymphocytes assessed as cell growth inhibition incubated for 48 hrs by MTT assay; type: toxicity, cell-based, Lymphocyte
[14] = Selectivity index, ratio of GI50 for human HaCaT cells to GI50 for human KB 3-1 cells; type: toxicity; settings: HaCaT cells versus KB 3-1 cells, read-out: RatioGI50
KB 3-1 = test: Anticancer activity against human KB 3-1 cells assessed as cell growth inhibition incubated for 72 hrs by MTT assay; type: functional
[15] = Cytotoxicity against mitogen activated human peripheral blood lymphocytes assessed as cell growth inhibition incubated for 24 hrs by MTT assay; type: toxicity, cell-based, Lymphocyte
UACC-62 = test: Anticancer activity against human UACC-62 cells assessed as inhibition of cell growth at 10 uM incubated for 48 hrs by SRB assay; type: functional
UO-31 = test: Anticancer activity against human UO-31 cells assessed as inhibition of cell growth at 10 uM incubated for 48 hrs by SRB assay; type: functional; settings: UO-31, 48 h, values are per cent of control
RPMI-8226 = test: Anticancer activity against human RPMI-8226 cells assessed as inhibition of cell growth at 10 uM incubated for 48 hrs by SRB assay; type: functional
Salmon testes DNA = test: Displacement of methyl green from salmon sperm DNA at 10 uM measured after 2 hrs by fluorescence plate reader method relative to control; type: nucleic-acid assay; settings: Salmo salar
MOLT-4 = test: Anticancer activity against human MOLT-4 cells assessed as inhibition of cell growth at 10 uM incubated for 48 hrs by SRB assay; type: functional
LOX IMVI = test: Anticancer activity against human LOX IMVI cells assessed as inhibition of cell growth at 10 uM incubated for 48 hrs by SRB assay; type: functional
MCF7 [16] = test: Anticancer activity against human MCF7 cells assessed as inhibition of cell growth at 10 uM incubated for 48 hrs by SRB assay; type: functional; settings: MCF7, 48 h, values are per cent of control

Row | SMILES | GI50 (MDA-MB-231) [µM] | GI50 [1] [µM] | GI50 (HCT-116) [µM] | GI50 (Jurkat) [µM] | selectivity ratio [2] | selectivity ratio [3] | GI50 (MCF7 [4]) [µM] | selectivity ratio [5] | GI50 (A549) [µM] | selectivity ratio [6] | GI50 (U-251) [µM] | selectivity ratio [7] | GI50 (SK-OV-3) [µM] | selectivity ratio [8] | selectivity ratio [9] | GI50 (HeLa) [µM] | selectivity ratio [10] | selectivity ratio [11] | GI50 at 72 h [12] [µM] | other results
1 | O=C1Nc2ccc(Cl)cc2/C1=C1/SC(=S)N(C2CC(=O)N(c3ccc(Cl)cc3)C2=O)C1=O (stereo not given) | > 100 | > 100 | > 100 | 6.1 | 1 | 1 | > 100 | 1 | > 100 | 1 | > 100 | 16.4 | > 100 | 1 | 1 | 58 | 1 | 1.72 | > 100 | 
2 | C=CCOc1ccccc1/C=C1\SC(=S)N(C2CC(=O)N(c3ccc(Cl)cc3)C2=O)C1=O (stereo not given) | 98.6 | 9.6 | 57.1 | 53.3 | 1.1 | 1.75 | 80.3 | 1.01 | > 100 | 1 | 91.2 | 1.88 | > 100 | 10.4 | 1 | 47.5 | 1.25 | 2.1 | > 100 | growth, % of control at 10 µM (CAKI-1): 72.2%; inhibition at 10 µM (MDA-MB-435): 68.2%; GI50 at 48 h [13]: > 100 µM; selectivity ratio [14]: 1; GI50 (KB 3-1): > 100 µM; GI50 at 24 h [15]: > 100 µM
3 | C=CCOc1cccc(/C=C2\SC(=S)N(C3CC(=O)N(c4ccc(Br)cc4)C3=O)C2=O)c1 (stereo not given) |  |  |  |  |  |  |  |  |  |  |  |  |  |  |  |  |  |  |  | inhibition at 10 µM (UACC-62): 86.8%
4 | O=C1Nc2ccccc2/C1=C1/SC(=S)N(C2CC(=O)N(c3ccc(Cl)cc3)C2=O)C1=O (stereo not given) | > 100 | > 100 | > 100 | 49.9 | 1 | 1 | > 100 | 1 | > 100 | 1 | > 100 | 2 | > 100 | 1 | 1 | > 100 | 1 | 1 | > 100 | growth, % of control at 10 µM (UO-31): 68.5%; inhibition at 10 µM (RPMI-8226): 36.3%
5 | O=C1CC(N2C(=O)CSC2=S)C(=O)N1c1ccc(O)cc1 (stereo not given) | > 100 | > 100 | > 100 | 23.4 | 1 | 1 | > 100 | 1 | > 100 | 1.64 | > 100 | 4.27 | 60.8 | 1 | 1 | > 100 | 1 | 1 | > 100 | 
6 | CC[n+]1c(-c2ccccc2)c2cc(N)ccc2c2ccc(N)cc21 |  |  |  |  |  |  |  |  |  |  |  |  |  |  |  |  |  |  |  | Activity (Salmon testes DNA): 84.1%
7 | O=C1CC(N2C(=O)CSC2=S)C(=O)N1c1ccc(Cl)cc1 (stereo not given) | > 100 | > 100 | > 100 | 88.4 | 0.98 | 0.98 | > 100 | 0.98 | > 100 | 0.98 | > 100 | 1.1 | > 100 | 0.98 | 0.98 | > 100 | 0.98 | 1 | 97.7 | growth, % of control at 10 µM (UO-31): 76.3%
8 | CCN(CC)c1ccc(/C=C2\SC(=S)N(C3CC(=O)N(c4ccc(Cl)cc4)C3=O)C2=O)cc1 (stereo not given) |  |  |  |  |  |  |  |  |  |  |  |  |  |  |  |  |  |  |  | inhibition at 10 µM (MOLT-4): 76%; inhibition at 10 µM (UACC-62): 73.3%
9 | C=CCOc1cccc(/C=C2\SC(=S)N(C3CC(=O)N(c4ccc(Cl)cc4)C3=O)C2=O)c1 (stereo not given) | > 100 | > 100 | > 100 | 74 | 1 | 1 | 98 | 1 | > 100 | 1 | > 100 | 1.35 | > 100 | 1 | 1 | > 100 | 1.02 | 1 | > 100 | inhibition at 10 µM (LOX IMVI): 14.2%
10 | O=C1Nc2ccccc2/C1=C1/SC(=S)N(C2CC(=O)N(c3ccc(Br)cc3)C2=O)C1=O (stereo not given) | > 100 | > 100 | > 100 | 21.5 | 1 | 1 | > 100 | 1 | > 100 | 1 | > 100 | 4.65 | > 100 | 1 | 1 | > 100 | 1 | 1 | > 100 | growth, % of control at 10 µM (MCF7 [16]): 45.7%; inhibition at 10 µM (RPMI-8226): 50%; inhibition at 10 µM (LOX IMVI): 33.8%
